# Key:
# [1] = system: diamondback moth (Plutella xylostella); test: Insecticidal effect on diamondback moth (Test Example 1); type: in vivo; details: diamondback moth; judged by the mortality criterion of Test Example 1
# Procedure, shortened: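 Oviposition by adults on Chinese cabbage seedling; immersion; air-dry; 25° C room. Count of hatched larvae at day 6 post-immersion → mortality → effect graded by criterion. Triplicate, 10 insects/group.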
# [2] = system: rice leafroller (Cnaphalocrocis medinalis); test: Insecticidal effect on rice leafroller (Test Example 3); type: in vivo; details: 500 ppm; rice lamina immersed; third-instar larvae of rice leafroller; four days after inoculation; 25° C., humidity 70%
# Procedure: Insecticidal effect on rice leafroller (Cnaphalocrocis medinalis)
# After air-drying, the lamina was placed in a plastic Petri dish with a diameter of 9 cm whose bottom had been covered with a wetted filter paper. The lamina was inoculated with third-instar larvae of rice leafroller, after which the dish was allowed to stand in a room thermostated at 25° C. and having a humidity of 70%. Four days after the inoculation, the dead and alive were counted and the insecticidal effect was judged according to the criterion shown in Test Example 1. The test was carried out with triplicate groups of 10 insects.
SMILES,"Insecticidal effect, Test Example 1 [1]","Insecticidal effect, Test Example 3 [2]"
CC(C)NC(=O)c1c(Cl)cccc1C(=O)Nc1cccc(SC(F)(F)F)c1 [compound 99],A (100),A (100)
CC(C)NC(=O)c1c(Cl)cccc1C(=O)Nc1ccc(-c2ccccc2)cc1 [compound 110],A (100),A (100)
COc1ccc(NC(=O)c2cccc(Cl)c2C(=O)NC(C)C)c(C)c1 [compound 123],A (100),A (100)
CC(C)NC(=O)c1c(Cl)cccc1C(=O)Nc1ccc(OC(F)F)c(Cl)c1 [compound 134],A (100),A (100)
CC(C)NC(=O)c1c(Cl)cccc1C(=O)Nc1ccc(OC(F)F)c(F)c1 [compound 137],A (100),A (100)
Cc1cc(SC(C)C)ccc1NC(=O)c1cccc(Cl)c1C(=O)NC(C)C [compound 153],A (100),D (79-50)
CC(C)NC(=O)c1cc(Cl)ccc1C(=O)Nc1cccc(C(F)(F)F)c1 [compound 171],A (100),D (79-50)
Cc1ccc(Cl)cc1NC(=O)c1ccc(Cl)cc1C(=O)NC(C)C [compound 178],A (100),A (100)
CC(C)NC(=O)c1ccc(Cl)cc1C(=O)Nc1ccc(Cl)cc1Cl [compound 187],A (100),D (79-50)
CC(C)NC(=O)c1ccc(Cl)cc1C(=O)Nc1ccc(F)c(F)c1 [compound 188],D (79-50),D (79-50)
Cc1ccc(Cl)cc1NC(=O)c1cc(Cl)ccc1C(=O)NC(C)C [compound 191],A (100),A (100)
CC(C)NC(=O)c1cccc(Cl)c1C(=O)Nc1ccc(C(C)(C)C)cc1 [compound 196],A (100),D (79-50)
CC(C)NC(=O)c1cccc(Cl)c1C(=O)Nc1ccc(OC(F)F)cc1 [compound 200],A (100),A (100)
CC(C)NC(=O)c1cccc(Cl)c1C(=O)Nc1cccc([S+]([O-])C(F)(F)F)c1 (stereo not shown) [compound 206],A (100),A (100)
CC(C)NC(=O)c1cccc(Cl)c1C(=O)Nc1ccc(Cl)cc1Cl [compound 209],A (100),B (99-90)
CC(C)NC(=O)c1cccc(Cl)c1C(=O)Nc1ccc(F)cc1F [compound 210],A (100),D (79-50)
CC(C)NC(=O)c1cccc(Cl)c1C(=O)Nc1ccc(F)cc1Cl [compound 211],A (100),A (100)
Cc1cc(Br)ccc1NC(=O)c1c(Cl)cccc1C(=O)NC(C)C [compound 216],A (100),A (100)
Cc1cc(I)ccc1NC(=O)c1c(Cl)cccc1C(=O)NC(C)C [compound 217],A (100),A (100)
COc1ccc(NC(=O)c2c(Cl)cccc2C(=O)NC(C)C)c(C)c1 [compound 218],A (100),C (89-80)
CC(C)NC(=O)c1cccc(Cl)c1C(=O)Nc1ccc(C(F)(F)F)cc1Cl [compound 220],A (100),A (100)
Cc1cc(C(F)(F)C(F)(F)C(F)(F)C(F)(F)C(F)(F)C(F)(F)F)ccc1NC(=O)c1c(Cl)cccc1C(=O)NC(C)C [compound 226],A (100),A (100)
CC(C)NC(=O)c1cccc(Cl)c1C(=O)Nc1ccc(OC(F)F)c(Cl)c1 [compound 232],A (100),A (100)
CC(C)NC(=O)c1cccc(Cl)c1C(=O)Nc1ccc(OC(F)(F)F)cc1Cl [compound 234],A (100),A (100)
CC(C)NC(=O)c1cccc(Cl)c1C(=O)Nc1ccc(OC(F)(F)F)cc1Br [compound 235],A (100),A (100)
Cc1cc(OC(F)(F)F)ccc1NC(=O)c1c(Cl)cccc1C(=O)NC(C)C [compound 237],A (100),A (100)
Cc1cc(OC(F)(F)Br)ccc1NC(=O)c1c(Cl)cccc1C(=O)NC(C)C [compound 238],A (100),A (100)

SMILES,"Insecticidal effect, Test Example 1 [1]","Insecticidal effect, Test Example 3 [2]"
Cc1cc(Oc2ncc(C(F)(F)F)cc2Cl)ccc1NC(=O)c1c(Cl)cccc1C(=O)NC(C)C [compound 250],A (100),D (79-50)
CCOP(=O)(OCC)c1ccc(NC(=O)c2c(Cl)cccc2C(=O)NC(C)C)c(C)c1 [compound 251],A (100),A (100)
CC(C)NC(=O)c1cccc(Cl)c1C(=O)Nc1ccc2oc(C(F)(F)F)nc2c1 [compound 255],A (100),A (100)
CC(C)NC(=O)c1cccc(Cl)c1C(=O)Nc1ccc2c(c1)nc(C(F)(F)F)n2C [compound 257],A (100),B (99-90)
Cc1cc(OC(F)F)ccc1NC(=O)c1c(Cl)ccc(Cl)c1C(=O)NC(C)C [compound 258],A (100),A (100)
Cc1cc(Cl)ccc1NC(=O)c1c(Cl)ccc(Cl)c1C(=O)NC(C)C [compound 259],A (100),D (79-50)
Cc1cccc(NC(=O)c2cccc(Br)c2C(=O)NC(C)C)c1C [compound 263],A (100),A (100)
CC(C)NC(=O)c1c(Br)cccc1C(=O)Nc1ccc2c(c1)OCO2 [compound 300],A (100),A (100)
Cc1cccc(NC(=O)c2c(Br)cccc2C(=O)NC(C)C)c1C [compound 303],A (100),D (79-50)
Cc1ccc(Cl)cc1NC(=O)c1c(Br)cccc1C(=O)NC(C)C [compound 307],A (100),D (79-50)
Cc1cc(Br)ccc1NC(=O)c1c(Br)cccc1C(=O)NC(C)C [compound 311],A (100),D (79-50)
Cc1cc(F)ccc1NC(=O)c1c(Br)cccc1C(=O)NC(C)C [compound 314],A (100),A (100)
CC(C)NC(=O)c1cccc(Br)c1C(=O)Nc1ccc(C(F)(F)F)cc1Cl [compound 315],A (100),A (100)
Cc1ccc(NC(=O)c2c(Br)cccc2C(=O)NC(C)C)c(C)c1OC(F)F [compound 320],A (100),D (79-50)
COc1ccc(NC(=O)c2c(Br)cccc2C(=O)NC(C)C)c(C)c1 [compound 322],A (100),B (99-90)
CC(C)NC(=O)c1cccc(Br)c1C(=O)Nc1ccc(OC(F)(F)F)cc1Br [compound 324],A (100),A (100)
Cc1cc(OC(F)(F)F)ccc1NC(=O)c1c(Br)cccc1C(=O)NC(C)C [compound 326],A (100),A (100)
Cc1cc(OC(F)(F)Br)ccc1NC(=O)c1c(Br)cccc1C(=O)NC(C)C [compound 327],A (100),A (100)
Cc1cc(OC(F)(F)C(F)F)ccc1NC(=O)c1c(Br)cccc1C(=O)NC(C)C [compound 330],A (100),A (100)
Cc1c(NC(=O)c2c(Br)cccc2C(=O)NC(C)C)ccc(OC(F)F)c1Cl [compound 332],A (100),A (100)
CSc1ccc(NC(=O)c2c(Br)cccc2C(=O)NC(C)C)c(C)c1 [compound 333],A (100),D (79-50)
Cc1cc(Oc2ccc(C(F)(F)F)cn2)ccc1NC(=O)c1c(Br)cccc1C(=O)NC(C)C [compound 335],A (100),B (99-90)
Cc1cc(Oc2ncc(C(F)(F)F)cc2Cl)ccc1NC(=O)c1c(Br)cccc1C(=O)NC(C)C [compound 336],A (100),D (79-50)
CC(C)NC(=O)c1cccc(Br)c1C(=O)Nc1ccc2c(c1)OCO2 [compound 337],A (100),A (100)
Cc1cc(OC(F)F)ccc1NC(=O)c1c(Br)ccc(Br)c1C(=O)NC(C)C [compound 340],A (100),A (100)
Cc1cc(Cl)ccc1NC(=O)c1c(Br)ccc(Br)c1C(=O)NC(C)C [compound 341],A (100),A (100)

# Source: patent US6362369B1, “Phthalic acid diamide derivatives fluorine-containing aniline compounds as starting material, agricultural and horticultural insecticides, and a method for application of the insecticides” (Nihon Nohyaku Co., Ltd., priority 1997, dated 2002)
